Source: ChEMBL document CHEMBL1201862, “PubChem BioAssay data set” (2004)
Blank lines part the entries; values can stand above or below the compound they belong to. Active and inactive are the calls of the source.

Legend:
CHO-K1 = assay: (§1) Counterscreen for antagonists of the orexin 1 receptor (OX1R; HCRTR1): Homogeneous time resolved fluorescence (HTRF)-based cell-based dose response assay to identify antagonists of the parental CHO-K1 cell line. [Related pubchem assays (depositor defined):AID434989, AID435008, AID463079, AID485270, AID492963, AID492964, AID492965, AID493232, AID504699, AID504701]; type: functional; settings: Cricetulus griseus
[1] = as §1, with “Fluorescence-based” for “Homogeneous time resolved fluorescence (HTRF)-based”, “cell-based high throughput” for “cell-based”, “CHO” for “CHO-K1”; type: functional
[2] = molecular target: T1, Orexin/Hypocretin receptor type 1 (Homo sapiens, UniProt O43613); assay: Homogeneous Time Resolved Fluorescence (HTRF)-based cell-based high throughput dose response assay for antagonists of the orexin 1 receptor (OX1R; HCRTR1). [Related pubchem assays (depositor defined):AID434989, AID435008, AID463079, AID485270, AID492963, AID492964, AID492965, AID493232, AID504717, AID504718]; type: functional
T1 sequence (O43613 whole entry): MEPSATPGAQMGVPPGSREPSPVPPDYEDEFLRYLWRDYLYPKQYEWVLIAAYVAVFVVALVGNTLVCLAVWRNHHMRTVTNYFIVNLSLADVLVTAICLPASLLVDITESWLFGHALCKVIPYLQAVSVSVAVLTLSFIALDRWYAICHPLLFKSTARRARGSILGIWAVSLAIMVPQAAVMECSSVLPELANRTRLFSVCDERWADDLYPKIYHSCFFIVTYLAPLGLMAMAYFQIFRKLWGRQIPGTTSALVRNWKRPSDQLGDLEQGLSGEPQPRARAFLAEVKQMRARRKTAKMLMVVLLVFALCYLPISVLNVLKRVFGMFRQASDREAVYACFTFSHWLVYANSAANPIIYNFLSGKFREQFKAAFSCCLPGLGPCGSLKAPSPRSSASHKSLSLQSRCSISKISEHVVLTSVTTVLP

[3] = molecular target: T1, Orexin/Hypocretin receptor type 1; assay: Fluorescence-based cell-based high throughput dose response assay for antagonists of the orexin 1 receptor (OX1R; HCRTR1). [Related pubchem assays (depositor defined):AID434989, AID435008, AID463079, AID485270, AID492963, AID492964, AID492965, AID493232, AID504717, AID504718]; type: functional
[4] = molecular target: DNA damage-inducible transcript 3 protein (Mus musculus, UniProt P35639); type: functional, Cricetulus griseus
DNA damage-inducible transcript 3 protein, sequence (P35639 whole entry): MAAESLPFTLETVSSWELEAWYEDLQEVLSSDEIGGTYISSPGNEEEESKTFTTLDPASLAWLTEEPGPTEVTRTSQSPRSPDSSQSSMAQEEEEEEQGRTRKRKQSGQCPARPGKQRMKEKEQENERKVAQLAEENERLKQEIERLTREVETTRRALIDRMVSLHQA

X-box-binding protein 1 = X-box-binding protein 1 (Homo sapiens, UniProt P17861); type: functional, Cricetulus griseus;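 also: confirmatory dose-response counter-screen serving a CHOP assay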
X-box-binding protein 1, sequence (P17861 whole entry): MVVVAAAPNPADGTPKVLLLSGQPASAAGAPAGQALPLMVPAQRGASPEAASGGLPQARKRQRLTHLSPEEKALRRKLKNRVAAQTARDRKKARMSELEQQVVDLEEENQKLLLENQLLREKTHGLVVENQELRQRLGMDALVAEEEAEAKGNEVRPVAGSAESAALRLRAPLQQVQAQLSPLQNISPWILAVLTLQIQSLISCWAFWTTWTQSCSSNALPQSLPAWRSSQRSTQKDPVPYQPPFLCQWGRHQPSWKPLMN

[5] = molecular target: ADP-ribosylation factor GTPase-activating protein 1 (Rattus norvegicus, UniProt Q62848); assay: Fluorescence polarization-based biochemical high throughput dose response screening assay to identify inhibitors of ADP-ribosylation factor GTPase activating protein 1 (ARFGAP1).; type: functional
ADP-ribosylation factor GTPase-activating protein 1, sequence (Q62848 whole entry, the tested form may be a part): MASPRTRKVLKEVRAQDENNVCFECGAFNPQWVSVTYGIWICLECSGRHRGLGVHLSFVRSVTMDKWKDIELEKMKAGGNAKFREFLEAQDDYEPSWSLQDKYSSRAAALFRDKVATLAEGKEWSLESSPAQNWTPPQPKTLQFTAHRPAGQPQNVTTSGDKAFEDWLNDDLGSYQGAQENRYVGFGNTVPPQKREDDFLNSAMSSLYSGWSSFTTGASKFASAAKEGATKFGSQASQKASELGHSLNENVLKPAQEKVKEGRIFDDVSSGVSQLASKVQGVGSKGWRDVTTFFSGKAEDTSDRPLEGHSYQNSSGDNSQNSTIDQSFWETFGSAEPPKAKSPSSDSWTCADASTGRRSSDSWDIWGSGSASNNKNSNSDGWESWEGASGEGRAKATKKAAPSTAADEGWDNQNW

[6] = molecular target: Arf-GAP with SH3 domain, ANK repeat and PH domain-containing protein 1 (Homo sapiens, UniProt Q9ULH1); type: functional;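 also: biochemical fluorescence polarization dose–response screen measuring inhibition of ASAP1; ASAP1 GAP domain stimulating GTP hydrolysis by truncated human ARF1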
Arf-GAP with SH3 domain, ANK repeat and PH domain-containing protein 1, sequence (Q9ULH1 whole entry, the tested form may be a part): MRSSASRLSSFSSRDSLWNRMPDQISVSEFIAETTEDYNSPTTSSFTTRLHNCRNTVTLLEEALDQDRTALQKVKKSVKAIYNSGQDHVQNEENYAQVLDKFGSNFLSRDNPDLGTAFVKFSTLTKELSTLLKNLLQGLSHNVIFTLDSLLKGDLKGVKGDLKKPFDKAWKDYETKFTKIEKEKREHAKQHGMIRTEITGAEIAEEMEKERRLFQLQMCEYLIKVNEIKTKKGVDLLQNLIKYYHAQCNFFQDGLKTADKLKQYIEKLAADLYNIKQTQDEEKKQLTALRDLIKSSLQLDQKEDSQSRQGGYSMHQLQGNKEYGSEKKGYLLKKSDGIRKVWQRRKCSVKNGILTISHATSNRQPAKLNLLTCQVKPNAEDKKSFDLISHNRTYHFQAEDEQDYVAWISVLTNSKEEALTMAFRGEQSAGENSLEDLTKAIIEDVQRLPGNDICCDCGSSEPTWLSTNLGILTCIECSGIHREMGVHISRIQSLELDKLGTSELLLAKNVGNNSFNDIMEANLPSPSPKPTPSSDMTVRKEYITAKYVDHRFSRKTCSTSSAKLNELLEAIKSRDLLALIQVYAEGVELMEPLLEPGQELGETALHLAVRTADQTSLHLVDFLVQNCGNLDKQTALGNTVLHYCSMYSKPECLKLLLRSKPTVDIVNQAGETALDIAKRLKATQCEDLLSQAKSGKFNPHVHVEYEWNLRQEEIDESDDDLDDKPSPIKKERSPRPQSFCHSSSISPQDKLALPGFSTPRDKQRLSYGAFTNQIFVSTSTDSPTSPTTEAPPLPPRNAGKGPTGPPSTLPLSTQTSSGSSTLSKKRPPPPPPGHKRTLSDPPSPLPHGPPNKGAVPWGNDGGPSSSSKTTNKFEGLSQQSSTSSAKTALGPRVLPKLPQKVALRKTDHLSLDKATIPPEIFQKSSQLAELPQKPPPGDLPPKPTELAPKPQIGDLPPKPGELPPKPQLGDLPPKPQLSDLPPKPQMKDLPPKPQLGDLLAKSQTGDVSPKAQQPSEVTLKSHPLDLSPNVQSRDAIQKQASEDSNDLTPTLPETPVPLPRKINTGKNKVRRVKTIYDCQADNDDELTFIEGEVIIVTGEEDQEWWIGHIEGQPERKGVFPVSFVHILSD

[7] = molecular target: DNA dC->dU-editing enzyme APOBEC-3A (Homo sapiens, UniProt P31941); assay: Dose Response confirmation of small molecule APOBEC3A DNA Deaminase Inhibitors via a fluorescence-based single-stranded DNA deaminase assay. [Related pubchem assays (depositor defined):AID493011, AID493024]; type: functional
DNA dC->dU-editing enzyme APOBEC-3A, sequence (P31941 whole entry): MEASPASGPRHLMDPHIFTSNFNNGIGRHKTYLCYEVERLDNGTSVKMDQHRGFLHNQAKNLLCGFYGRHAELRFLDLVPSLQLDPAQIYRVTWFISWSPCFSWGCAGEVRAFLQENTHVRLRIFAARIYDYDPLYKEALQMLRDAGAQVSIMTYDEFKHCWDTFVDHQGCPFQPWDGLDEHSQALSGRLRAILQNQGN

[8] = molecular target: DNA dC->dU-editing enzyme APOBEC-3G (Homo sapiens, UniProt Q9HC16); type: functional;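 also: Dose-response counterscreen measuring inhibition of APOBEC3G DNA deaminase activity, run while confirming APOBEC3A inhibitors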
DNA dC->dU-editing enzyme APOBEC-3G, sequence (Q9HC16 whole entry): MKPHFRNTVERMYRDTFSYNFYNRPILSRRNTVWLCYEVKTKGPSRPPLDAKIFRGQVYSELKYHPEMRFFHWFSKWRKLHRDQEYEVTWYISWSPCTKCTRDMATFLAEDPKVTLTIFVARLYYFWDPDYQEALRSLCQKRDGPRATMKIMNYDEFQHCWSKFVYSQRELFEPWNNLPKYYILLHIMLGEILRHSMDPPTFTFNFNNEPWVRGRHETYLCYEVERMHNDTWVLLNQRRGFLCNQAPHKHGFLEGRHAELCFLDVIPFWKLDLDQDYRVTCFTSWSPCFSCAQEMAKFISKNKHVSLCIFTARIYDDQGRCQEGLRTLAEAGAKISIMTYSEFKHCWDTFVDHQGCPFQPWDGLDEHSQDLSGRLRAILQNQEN

Structure (SMILES): Cc1ccc(N(CC(=O)NCCc2ccc(Cl)cc2)S(=O)(=O)c2c(C)noc2C)cc1
- IC50 (CHO-K1): > 66.2 µM (inactive)
- IC50 [1]: > 49.8 µM (inactive)
- IC50 [2]: 585 nM (active)
- IC50 [3]: 2.87 µM (active)

- Absolute IC50 (XBP1) (X-box-binding protein 1): 10 µM
- IC50 [5]: 18.4 µM (inactive)
- IC50 [6]: 18.4 µM (inactive)
Structure (SMILES): Cn1c(=O)n(CCOc2ccc(Cl)cc2Cl)c2ccccc21
- Absolute IC50 (CHOP) [4]: 10 µM

Structure (SMILES): O=[N+]([O-])c1ccccc1/C=N/NC1=NCCN1
- IC50 [7]: 5.96 µM (active)
- IC50 [8]: 6.95 µM (active)
